≈ marks a conversion by molar mass, not a printed value.
Legend:
MCF7 breast cancer cells = test system: MCF7 breast cancer cells; set-up: method as in PMID 14758092; conditions: incubation times of 96 h; cited from earlier work
[1] = test system: NCI-H929 myeloma cell line; experiment: Cytotoxicity, flow cytometry (AnnexinV/propidium iodide negativity), NCI-H929; type: cell-based, human
Protocol: (§1) Induction of apoptosis was measured in myeloma cell lines NCI-H929, OPM-2, and U266 as well as in peripheral blood mononuclear cells (PBMCs) of healthy donors by flow cytometry using established protocols thereby staining the cells with AnnexinV-fluorescein isothiocyanate and propidium iodide. Bortezomib (Eubio, Vienna, Austria) was used as positive control. Cell lines were purchased from DSMZ (Braunschweig, Germany) and routinely fingerprinted and tested for mycoplasma negativity. All cells (cell lines and PBMC) were grown in RPMI-1640 medium (Life Technologies, Paisley, UK) supplemented with 10% fetal calf serum (FCS; PAA, Linz, Austria), L-glutamine 100 µg/mL, and penicillin-streptomycin 100 U/mL. PBMCs from healthy donors were used after obtaining written informed consent at the University Hospital Salzburg (ethics committee approval 415-E/1287/6-2011). Cells were subjected to Ficoll separation (Ficoll PaqueTM) and incubated in RPMI-1640 Media with supplements as above. In brief, 0.5 × 10^6 myeloma cells/mL or similar numbers of PMBCs were incubated for 24 h and 48 h with or without the tested compounds dissolved in dimethyl sulfoxide at different concentrations. At least three analyses in triplicates were performed for each cell line and a solvent control was always included. As a positive control, the proteasome inhibitor bortezomib (BTZ) was used at concentrations of 10 and 5 nM. The extent of non-apoptotic cells (AnnexinV/propidium iodide negativity) was calculated as percentage of viable cells in respect to the untreated control. Data are shown as mean percentage of viable cells and standard error of the mean (SEM) (error bars).

OPM-2 myeloma cell line = experiment: Cytotoxicity, flow cytometry (AnnexinV/propidium iodide negativity), OPM-2; type: cell-based, human
Protocol: as §1

U266 myeloma cell line = experiment: Cytotoxicity, flow cytometry (AnnexinV/propidium iodide negativity), U266; type: cell-based, human
Protocol: as §1

MCF7 cells = test system: MCF7 cells; set-up: method as in PMID 20564500; conditions: cited from earlier work
[2] = test system: peripheral blood mononuclear cells (PBMCs) of healthy donors; experiment: Cytotoxicity, flow cytometry (AnnexinV/propidium iodide negativity), PBMC of healthy donors; type: cell-based, human; conditions: for PBMC % Alive: 24 h, second round (Table 3)
Protocol: as §1

[3] = test system: doxorubicin-resistant-MCF7 (R-MCF7) cells; set-up: method as in PMID 20564500; conditions: cited from earlier work
[4] = 5 nM, 24 h, positive control (Table 3)
[5] = 10 nM, 24 h, positive control (Table 3)
[6] = 12.5 µM, 24 h, second round (Table 3)
[7] = 25 µM, 24 h, second round (Table 3)
[8] = 37.5 µM, 24 h, second round (Table 3)

In the case of `CC(=O)O[C@@H]1C[C@@]23C[C@@]24CC[C@H](O[C@@H]2OC[C@@H](O)[C@H](O)[C@H]2O)C(C)(C)[C@@H]4CC=C3[C@]2(C)C[C@@H]3O[C@@]4(O)[C@H](OC(C)(C)[C@H]4O)[C@@H](C)[C@@H]3[C@@]12C` [cimiracemoside A], the “IC50 growth inhibition of MCF7 breast cancer cells” value (MCF7 breast cancer cells) is given as 41 µg/mL.

For `CC(C)C[C@H](NC(=O)[C@H](Cc1ccccc1)NC(=O)c1cnccn1)B(O)O` [BTZ, bortezomib, reference compound], the “MM Cells % Alive NCI-H929” value [1, 4] was 3.0 ± 1.0%, the “MM Cells % Alive NCI-H929” value [1, 5] was 6.3 ± 5.4% and the “MM Cells % Alive OPM-2” value (OPM-2 myeloma cell line; [4]) was 85.3 ± 7.6%. For the same compound, the “MM Cells % Alive OPM-2” value (OPM-2 myeloma cell line; [5]) was 66.0 ± 9.4%, the “MM Cells % Alive U266” value (U266 myeloma cell line; [4]) was 80.7 ± 14.1% and the “MM Cells % Alive U266” value (U266 myeloma cell line; [5]) was 25.0 ± 8.3%.

In the case of `CC(=O)OC(C)(C)C1OC23OC1CC(C)C2C1(C)CCC24CC25CCC(OC2OCC(O)C(O)C2O)C(C)(C)C5CCC4C1(C)C3O` [Compound 4, 25-O-acetylcimigenol-3-O-β-D-xylopyranoside], the “MM Cells % Alive NCI-H929” value [1, 6] was 84.3 ± 8.6%, the “MM Cells % Alive NCI-H929” value [1, 7] was 59.5 ± 8.7% and the “MM Cells % Alive NCI-H929” value [1, 8] was 27.8 ± 6.6%. For the same compound, the “IC50 NCI-H929” value ([1]; incubation for 24 h) was 20.3 µg/mL (≈ 30.6 µM), the “MM Cells % Alive OPM-2” value (OPM-2 myeloma cell line; [6]) was 94.8 ± 5.3% and the “MM Cells % Alive OPM-2” value (OPM-2 myeloma cell line; [7]) was 90.3 ± 3.7%. For the same compound, the “MM Cells % Alive OPM-2” value (OPM-2 myeloma cell line; [8]) was 56.0 ± 13.0%, the “IC50 OPM-2” value (OPM-2 myeloma cell line; incubation for 24 h) was 26.3 µg/mL (≈ 39.7 µM) and the “IC50 MCF7” value (MCF7 cells; 48 h of incubation) was 4.3 µg/mL (≈ 6.49 µM). The “MM Cells % Alive U266” value (U266 myeloma cell line; [6]) was 91.8 ± 4.2%, the “MM Cells % Alive U266” value (U266 myeloma cell line; [7]) was 87.8 ± 2.0% and the “MM Cells % Alive U266” value (U266 myeloma cell line; [8]) was 88.0 ± 1.2%. The “IC50 U266” value (U266 myeloma cell line; incubation for 24 h) was >37.5 µg/mL, the “PBMC % Alive” value ([2]; 12.5 µM) was 96.7 ± 2.9% and the “PBMC % Alive” value ([2]; 25 µM) was 72.7 ± 5.4%. For the same compound, the “PBMC % Alive” value ([2]; 37.5 µM) was 28.7 ± 5.9%, the “IC50 PBMC” value ([2]; incubation for 24 h) was 20.7 µg/mL (≈ 31.2 µM) and the “IC50 R-MCF7” value ([3]; doxorubicin-resistant MCF7, 48 h of incubation) was 4.8 µg/mL (≈ 7.24 µM).

For `CC1CC2OC3(OC2C(C)(C)O)C1C1(C)CCC24CC25CCC(OC2OCC(O)C(O)C2O)C(C)(C)C5CCC4C1(C)C3O` [Compound 6, cimigenol-3-O-β-D-xylopyranoside], the “MM Cells % Alive NCI-H929” value [1, 6] was 98.5 ± 0.8%, the “MM Cells % Alive NCI-H929” value [1, 7] was 91.8 ± 3.4% and the “MM Cells % Alive NCI-H929” value [1, 8] was 88.5 ± 0.3%. For the same compound, the “activity on NCI-H929 (in words)” value ([1]; 24 h, up to 37.5 µM) was “no activity”, the “MM Cells % Alive OPM-2” value (OPM-2 myeloma cell line; [6]) was 101.7 ± 0.9% and the “MM Cells % Alive OPM-2” value (OPM-2 myeloma cell line; [7]) was 99.5 ± 1.8%. The “MM Cells % Alive OPM-2” value (OPM-2 myeloma cell line; [8]) was 100.5 ± 2.4%, the “activity on OPM-2 (in words)” value (OPM-2 myeloma cell line; 24 h, up to 37.5 µM) was “no activity” and the “activity against MCF7 (in words)” value (MCF7 cells) was “no activity”. The “MM Cells % Alive U266” value (U266 myeloma cell line; [6]) was 94.8 ± 3.0%, the “MM Cells % Alive U266” value (U266 myeloma cell line; [7]) was 94.5 ± 3.5% and the “MM Cells % Alive U266” value (U266 myeloma cell line; [8]) was 93.5 ± 3.2%. The “activity on U266 (in words)” value (U266 myeloma cell line; 24 h, up to 37.5 µM) was “no activity” and the “activity against R-MCF7 (in words)” value [3] was “no activity”.

From PMC7070908, “Structure-Guided Identification of Black Cohosh (Actaea racemosa) Triterpenoids with In Vitro Activity against Multiple Myeloma” (Molecules, 2020)
